ChEMBL document CHEMBL1201862, “PubChem BioAssay data set” (2004)
Activity calls are given as the source filed them.

How the values were obtained:
[1] = biological target: T1, Mannose-6-phosphate isomerase (Homo sapiens, UniProt P34949); experiment: MPI inhibition at elevated mannose 6-phosphate – biochemical, fluorescence intensity, high mannose 6-phosphate, primary screen (AID 1220)
T1 sequence (P34949 whole entry): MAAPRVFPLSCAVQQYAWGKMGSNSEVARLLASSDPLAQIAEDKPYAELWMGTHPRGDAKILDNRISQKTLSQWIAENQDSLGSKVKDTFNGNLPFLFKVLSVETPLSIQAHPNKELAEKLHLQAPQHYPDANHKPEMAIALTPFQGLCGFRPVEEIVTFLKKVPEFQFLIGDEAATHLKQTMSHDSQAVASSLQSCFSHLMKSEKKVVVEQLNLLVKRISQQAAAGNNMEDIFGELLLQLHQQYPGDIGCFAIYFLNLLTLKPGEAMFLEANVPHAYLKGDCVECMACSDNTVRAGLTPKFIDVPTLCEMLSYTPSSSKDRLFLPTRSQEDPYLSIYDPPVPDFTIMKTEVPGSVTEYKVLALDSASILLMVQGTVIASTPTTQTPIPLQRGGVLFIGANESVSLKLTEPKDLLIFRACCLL

[2] = cells; format: functional, cell-based
[3] = cells; format: functional, cell-based; remark: listed apart in the source
[4] = biological target: T2, Leucine aminopeptidase (Plasmodium falciparum 3D7, UniProt Q8IL11); experiment: P. falciparum M17LAP inhibitors, primary screen, biochemical, fluorogenic H-Leu-NHMec substrate, 1536-well (AID 1619); format: functional
T2 sequence (Q8IL11 whole entry): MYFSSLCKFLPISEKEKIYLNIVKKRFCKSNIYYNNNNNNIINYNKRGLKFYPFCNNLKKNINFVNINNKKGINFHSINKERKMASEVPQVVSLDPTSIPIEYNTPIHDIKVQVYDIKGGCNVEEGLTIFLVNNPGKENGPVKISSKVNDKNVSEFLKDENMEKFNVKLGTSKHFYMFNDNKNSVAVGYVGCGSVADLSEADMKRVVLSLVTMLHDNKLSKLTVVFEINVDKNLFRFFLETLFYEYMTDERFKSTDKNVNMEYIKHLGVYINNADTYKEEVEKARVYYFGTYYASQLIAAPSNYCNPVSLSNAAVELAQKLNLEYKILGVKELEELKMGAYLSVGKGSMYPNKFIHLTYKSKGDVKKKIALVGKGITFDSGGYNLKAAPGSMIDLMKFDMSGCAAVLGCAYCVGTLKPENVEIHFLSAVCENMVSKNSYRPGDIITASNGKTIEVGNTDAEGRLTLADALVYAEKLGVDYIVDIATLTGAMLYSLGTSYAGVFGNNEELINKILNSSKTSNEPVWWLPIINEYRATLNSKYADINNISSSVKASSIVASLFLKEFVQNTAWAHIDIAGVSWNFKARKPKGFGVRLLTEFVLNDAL

[5] = biological target: T3, Ubiquitin-conjugating enzyme E2 N (Homo sapiens, UniProt P61088); format: functional;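 also: Dose-response confirmation in a TR-FRET assay detecting UBC13-driven polyubiquitin chain formation, inhibition measured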
T3 sequence (P61088 whole entry): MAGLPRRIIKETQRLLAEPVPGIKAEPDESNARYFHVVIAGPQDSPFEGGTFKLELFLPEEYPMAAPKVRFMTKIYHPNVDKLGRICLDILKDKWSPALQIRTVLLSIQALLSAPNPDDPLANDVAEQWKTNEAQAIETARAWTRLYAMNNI

[6] = cells; format: functional, cell-based; remark: listed apart in the source
[7] = biological target: T4, Trace amine-associated receptor 1 (Homo sapiens, UniProt Q96RJ0); experiment: Fluorescence-based cell-based high throughput dose response assay to identify agonists of the human trace amine associated receptor 1 (TAAR1).; format: functional
T4 sequence (Q96RJ0 whole entry): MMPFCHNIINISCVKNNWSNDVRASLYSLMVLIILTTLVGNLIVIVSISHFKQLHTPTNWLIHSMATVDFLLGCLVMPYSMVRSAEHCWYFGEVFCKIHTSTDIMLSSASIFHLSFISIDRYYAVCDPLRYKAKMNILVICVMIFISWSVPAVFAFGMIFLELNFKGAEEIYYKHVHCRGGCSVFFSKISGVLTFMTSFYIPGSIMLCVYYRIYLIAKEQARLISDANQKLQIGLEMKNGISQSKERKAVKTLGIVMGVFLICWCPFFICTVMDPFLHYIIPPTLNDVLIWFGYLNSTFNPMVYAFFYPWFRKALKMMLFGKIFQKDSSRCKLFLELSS

[8] = biological target: T4, Trace amine-associated receptor 1; experiment: Counterscreen for agonists of the human trace amine associated receptor 1 (hTAAR1): Fluorescence-based cell-based high throughput dose response assay to identify hTAAR1 agonist that also desensitize TAAR1 receptor response.; format: functional
[9] = cells; format: functional, cell-based; remark: listed apart in the source
[10] = viability of PTEN-deleted HCT116 cells – cell-based, HCT116 PTEN knockout, dose response (AID 1047); format: functional;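 also: HCT116 colon tumor cells with PTEN knocked out; cells exposed to compound for 60 hours before readout; potency for loss of cell viability measured by luminescence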
[11] = viability of HCT116 lacking mutant beta-catenin – cell-based, human colon tumor, dose response (AID 1045); format: functional;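 also: HCT116 colon tumor cells with beta catenin knocked out; cells exposed to compound for 60 hours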
[12] = Luminescence Cell-Based Dose Retest to Confirm Inhibitors of Cancer Stem Cells. [Related pubchem assays (depositor defined):AID2717, AID2721]; format: functional; conditions: Homo sapiens
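For AC50 in this document: cells exposed to compound for roughly 70 hours or longer before luminescence read.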

For `COC(=O)C1=C(C(=O)OC)SC(=C2C(=S)C(C)(C)N(C(=O)C(C)C)c3ccccc32)S1`, the IC50 [1] was 7.38 µM (active).

For `COc1ccc2cc3cc(C(=O)N4CCN(c5ccccn5)CC4)oc3nc2c1`, the EC50 [2] was > 350 µM (not active) and the EC50 [3] was > 350 µM (not active).

With `CCNC(=O)NC(=O)C(C)Sc1ccc2c(c1)OCCO2` (configuration not stated) the IC50 [4] was 7.93 µM (active).

With `CCOc1ccc(NC(=O)C2CCN(S(=O)(=O)c3ccc4c(c3)N(C(C)=O)CCO4)CC2)cc1` the EC50 [2] was > 350 µM (not active) and the EC50 [3] was > 350 µM (not active).

In the case of `Fc1ccc(CSc2ccc(-c3ccco3)nn2)cc1`, the EC50 [2] is reported as > 350 µM (not active) and the EC50 [3] is reported as 7.7 µM (active).

With `O=C(O)c1ccc(COc2ccc3ccccc3c2/C=C2/NC(=O)N(c3ccccc3)C2=O)cc1` the IC50 [4] was 24.6 µM (active).

In the case of `CCOc1cc2c(C#N)c(N3CCNCC3)nc(N)c2c(N)n1`, the IC50 [1] is reported as > 50 µM (not active), the IC50 [5] is reported as > 20 µM (inactive) and the IC50 [6] is reported as > 29.9 µM (inactive). The EC50 [7] was 5.69 µM (active), the IC50 [8] was 8.23 µM (active) and the EC50 [9] was > 29.9 µM (inactive).

With `Cc1cccc(-c2cc3nc(C)cc(N4CC(C)CC(C)C4)n3n2)c1` (configuration not stated) the EC50 [10] was 27.8 µM (active), the EC50 [11] was 43.9 µM (active) and the AC50 [12] was 5.01 µM (active). The IC50 [6] was > 29.9 µM (inactive), the EC50 [7] was 7.1 µM (active) and the IC50 [8] was > 29.9 µM (inactive). For the same compound, the EC50 [9] was > 29.9 µM (inactive).
